Laboratory results as given in patent US7101902B2, “2-guanidinylimidazolidinedione compounds and methods of making and using thereof” (The United States of America as represented by the …, priority 2003, dated 2006).
“And” between values parts separate entries of the source, which are not always exact repeats. Equal values may be shown once. “Also recorded” adds a separate entry of the source.

Key:
Plasmodium yoelii (17×) = assay: Sporozoite induced test in mouse (causal prophylactic activity); assay type: in vivo; conditions: sporozoite challenged CD-1 mice; single dose 4 hours before inoculation; oral administration
Protocol: The causal prophylactic antimalarial activity of the new carbamate derivatives were assessed in a sporozoites challenged mouse model according to the following protocol and the results are shown in Table 4 and Table 5.
Each compound was ground with a mortar and pestle and suspended in 0.5% hydroxyethylcellulose and 0.1% Tween 80 for compounds to be administered PO and those given SC were suspended in peanut oil. Each compound is prepared at 3 different dose levels.
Compounds were administered either PO or SC to mice once 4 hours before inoculation of sporozoites.
Four-week-old male CD-1 mice, purchased from Charles River and weighing about 16 to about 17 grams were placed 5 per cage and allowed to acclimate for 4 days before being treated and then inoculated with sporozoites. They were fed food and water ad-lib and maintained at 76° F. with 12 hour light and 12 hour darkness. The cages and water bottles were changed biweekly. The mice are weighed on Days 0, 3 and 6 then biweekly when blood films were taken.
Plasmodium yoelii (17×) was used to infect mice that will be used to infect the mosquitoes.
Mice were given a single dose of test compound 4 hours before being inoculated intraperitoneally with 2.5×10^5 sporozoites of Plasmodium yoelii on Day 0. Whole body weights were taken on Day 0 and Day 6 then twice a week for 31 days. A blood film was taken on Day 5 and then twice a week for 31 days. Mice loosing greater than about 20% of their body weight were sacrificed. All mice alive on Day 31 with no parasites in a blood film were considered cured. Donor mice used to infect the mosquitoes were infected with 2.5×10^4 parasitized erythrocytes. The mosquitoes were allowed to feed on these malaria-infected mice on Day 4 of their infection when the parasitemia was low.
A compound was considered active against either the sporozoite or the EE stage if no parasites were found in the blood films taken on Day 5 or on subsequent blood films taken weekly for 31 days.
Mice alive on Day 31 with no parasites found in any blood films were considered cured.

P. cynomolgi sporozoites [1] = assay: Oral causal prophylactic assay in Rhesus monkey (compound 3 IM; 4b and 3c PO); assay type: in vivo, Plasmodium cynomolgi; conditions: per monkey
Protocol: To test the causal prophylactic intramuscular potency of the purified isomer of compound 3 and oral potency of two carbamate derivatives of 2-guanidinylimidazolidinedione (4b and 3c) the following assay was conducted.
Fourteen rhesus monkeys were issued.
A donor monkey was inoculated intravenously with 1.3 ml, freshly-thawed frozen infected red blood cell (DA310). When the monkey developed gametocytemia, mosquito feedings were conducted on days 15 and 16 after inoculation. The donor monkey was treated with intramuscular chloroquine hydrochloride (CQ) 10 mg/kg, once a day after the second mosquito feeding and continued for 6 days.
On day 0 of the beginning of the assay, each of the 14 monkeys was inoculated intravenously with 1-ml inoculum of suspension containing about 1.0×10^6 P. cynomolgi sporozoites harvested from Anopheles dirus mosquitoes' salivary glands previously fed on the donor monkey.
All monkeys received treatment on days −1, 0 and 1. The control monkeys (Group 1) received HECT orally and the experimental animals received testing compound intramuscularly (Groups 2 and 3) or orally (Groups 4 to 7).

[2] = Solubility and characteristics of the compounds in the dosing vehicle; assay type: physicochemical
P. cynomolgi sporozoites [3] = assay: Causal prophylactic assay for intramuscular administration in Rhesus monkey; assay type: in vivo, Plasmodium cynomolgi
Protocol: The causal prophylactic antimalarial activity of the two 2-guanidinylimidazolidinedione carbamates 3c and 4b were assessed against Plasmodium cynomolgi in Rhesus monkey. Two monkeys were used in each test group. The average control animal developed parasitemia is about 10 days after inoculation of about 1×10^6 P. cynomolgi sporozoites harvested from Anopheles dirus.
In order to study the causal prophylactic activity of the 2-guanidinylimidazolidinedione compounds of the present invention, the following assay was conducted. Twelve rhesus monkeys were issued. The monkeys were randomized to 2 control animals and 5 groups of 2 experimental animals each.
A donor monkey was inoculated intravenously with 1.3 ml, freshly-thawed frozen infected red blood cells (DA310). The experiments were conducted in US Army oversea laboratory, AFRIMS, Bankoku, Thailand. When the donor monkey developed gametocytemia, mosquito feedings were conducted on days 13 and 14 after inoculation. The donor monkey was treated with intramuscular chloroquine hydrochloride (CQ) 10 mg/kg, once a day after the second mosquito feeding and continued for 7 days.
On day 0 (beginning of assay), each of the 12 monkeys was inoculated intravenously with 1-ml inoculum of suspension containing about 1.0×10^6 P. cynomolgi sporozoites harvested from Anopheles dirus mosquitoes' salivary glands previously fed on the donor monkey. See Corcoran, K D, et al. (1993) Am. J. Trop. Med. Hyg. 49:473–477, and Shanks, G D, et al. (2001) Clinical Infectious Diseases 33:1968–1974, which are herein incorporated by reference.
All monkeys received treatment on days −1, 0 and 1. The control monkeys received dimethylsulfoxide (DMSO) and the experimental animals received testing compound intramusculary.

In the case of `CCOC(=O)N=C(N=C1NC(=O)C(=O)N1C(C)C)Nc1ccc(Cl)c(Cl)c1` [Compound 3a, N-(3,4-dichlorophenyl)-N′-ethoxycarbonyl-N″-(1-isopropyl-4,5-dioxo-imidazolidin-2-ylidene)-guanidine], the melting point is reported as 257 °C and the “Minimum Protective Dose Against P. yoelii” value (Plasmodium yoelii (17×)) is reported as 2.5 mg/kg.

With `CC(C)COC(=O)N=C(N=C1NC(=O)C(=O)N1C(C)C)Nc1ccc(Cl)c(Cl)c1` [Compound 3b, N-(3,4-dichlorophenyl)-N′-(isobutoxycarbonyl)-N″-(1-isopropyl-4,5-dioxo-imidazolidin-2-ylidene)-guanidine] the “Minimum Protective Dose Against P. yoelii” value (Plasmodium yoelii (17×)) was >40 mg/kg.

For `CC(C)N1C(=O)C(=O)NC1=NC(=NC(=O)OC(C)(C)C)Nc1ccc(Cl)c(Cl)c1` [Compound 3c, N-(3,4-dichlorophenyl)-N′-(1-isopropyl-4,5-dioxoimidazolidin-2-ylidene)-N″-(tert-butoxycarbonyl)-guanidine], the “Day of Parasitemia” value (P. cynomolgi sporozoites [1]; 10 mg/kg PO, 10 mg/kg) was 9 days and 10 days, the “Result (delay the parasitemia)” value (P. cynomolgi sporozoites [1]; 10 mg/kg PO, 10 mg/kg) was 2 days and 1 days and the “Day of Parasitemia” value (P. cynomolgi sporozoites [1]; 30 mg/kg PO, 30 mg/kg) was 10 days and 11 days. For the same compound, the “Result (delay the parasitemia)” value (P. cynomolgi sporozoites [1]; 30 mg/kg PO, 30 mg/kg) was 3 days and 2 days, the “Minimum Protective Dose Against P. yoelii” value (Plasmodium yoelii (17×)) was 40 mg/kg and the Sediment ([2]; vehicle DMSO, dosage 10 mg/kg) was “None”. The Solubility ([2]; vehicle DMSO, dosage 10 mg/kg) was “Good”, the Sediment ([2]; vehicle DMSO, dosage 30 mg/kg) was “None” and the Solubility ([2]; vehicle DMSO, dosage 30 mg/kg) was “Good”. For the same compound, the Solubility ([2]; vehicle HECT, dosage 10 mg/kg) was “Moderate”, the Supernatant ([2]; vehicle HECT, dosage 10 mg/kg) was “Turbid” and the Solubility ([2]; vehicle HECT, dosage 30 mg/kg) was “Moderate”. The Supernatant ([2]; vehicle HECT, dosage 30 mg/kg) was “Turbid”.

For `CCCCCCOC(=O)N=C(N=C1NC(=O)C(=O)N1C(C)C)Nc1ccc(Cl)c(Cl)c1` [Compound 3e, N-(3,4-dichlorophenyl)-N′-(1-hexyloxycarbonyl)-N″-(1-isopropyl-4,5-dioxo-imidazolidin-2-ylidene)-guanidine], the “Minimum Protective Dose Against P. yoelii” value (Plasmodium yoelii (17×)) was 40 mg/kg.

In the case of `C=CCCOC(=O)N=C(N=C1NC(=O)C(=O)N1C(C)C)Nc1ccc(Cl)c(Cl)c1` [Compound 3g, N-(3,4-dichlorophenyl)-N′-(3-butenyloxycarbonyl)-N″-(1-isopropyl-4,5-dioxoimidazolidin-2-ylidene)-guanidine], the “Minimum Protective Dose Against P. yoelii” value (Plasmodium yoelii (17×)) is reported as 160 mg/kg.

With `CC(C)N1C(=O)C(=O)NC1=NC(=NC(=O)OCCOCc1ccccc1)Nc1ccc(Cl)c(Cl)c1` [Compound 3h, N-(3,4-dichloro-phenyl)-N′-(2-benzyloxyethoxycarbonyl)-N″-(1-isopropyl-4,5-dioxo-imidazolidin-2-ylidene)-guanidine] the “Minimum Protective Dose Against P. yoelii” value (Plasmodium yoelii (17×)) was 160 mg/kg.

In the case of `CC(C)NC(=N)NC1=NC(=O)C(=O)N1c1ccc(Cl)c(Cl)c1` [Compound 4, N-[1-(3,4-dichlorophenyl)-4,5-dioxo-4,5-dihydro-1H-imidazol-2-yl]-N′-isopropylguanidine], the melting point is reported as 244 °C and 245 °C and the “Minimum Protective Dose Against P. yoelii” value (Plasmodium yoelii (17×)) is reported as 5 mg/kg.

For `CC(C)COC(=O)N=C(N=C1NC(=O)C(=O)N1c1ccc(Cl)c(Cl)c1)NC(C)C` [Compound 4b, N-[1-(3,4-dichlorophenyl)-4,5-dioxo-imidazolidin-2-ylidene]-N′-isopropyl-N″-(isobutyloxycarbonyl)guanidine], the “Day of Parasitemia” value (P. cynomolgi sporozoites [3]; 10 mg/kg IM on days -1, 0 and 1, per monkey, 10 mg/kg) was “Parasitemia on day 47 and Parasite free on day 100 and 47 day and Remain parasite free”, the “Result (causal prophylaxis = parasite free for 100 days after treatment)” value (P. cynomolgi sporozoites [3]; 10 mg/kg IM, 10 mg/kg) was “protected one monkey; also recorded: Causal prophylaxis; also recorded: Delay the parasitemia” and the Delay of parasitemia (P. cynomolgi sporozoites [3]; 10 mg/kg IM, the monkey not protected) was 34 days. The “Day of Parasitemia” value (P. cynomolgi sporozoites [3]; 30 mg/kg IM on days -1, 0 and 1, per monkey, 30 mg/kg) was “stayed parasite free 100 days after treatment; also recorded: Parasite free on day 100; also recorded: Remain parasite free”, the “Result (causal prophylaxis = parasite free for 100 days after treatment)” value (P. cynomolgi sporozoites [3]; 30 mg/kg IM, 30 mg/kg) was “protected; also recorded: Causal prophylaxis” and the “Protective / prophylactic activity (in words)” value (P. cynomolgi sporozoites [3]; 10 and 30 mg/kg, intramuscular) was “partial to complete prophylactic activity; also recorded: protective activity”. For the same compound, the “Day of Parasitemia” value (P. cynomolgi sporozoites [1]; 10 mg/kg PO) was 8 days, the “Result (delay the parasitemia)” value (P. cynomolgi sporozoites [1]; 10 mg/kg PO, 10 mg/kg) was “not protected; also recorded: No activity” and the “Day of Parasitemia” value (P. cynomolgi sporozoites [1]; 30 mg/kg PO) was 8 days. The “Result (delay the parasitemia)” value (P. cynomolgi sporozoites [1]; 30 mg/kg PO, 30 mg/kg) was “not protected; also recorded: No activity”, the “Minimum Protective Dose Against P. yoelii” value (Plasmodium yoelii (17×)) was 2.5 mg/kg and the Sediment ([2]; vehicle DMSO, dosage 10 mg/kg) was “None”. For the same compound, the Solubility ([2]; vehicle DMSO, dosage 10 mg/kg) was “Good”, the Supernatant ([2]; vehicle DMSO, dosage 10 mg/kg) was “Clear” and the Supernatant ([2]; vehicle DMSO, dosage 30 mg/kg) was “Clear”. The Solubility ([2]; vehicle HECT, dosage 10 mg/kg) was “Moderate”, the Supernatant ([2]; vehicle HECT, dosage 10 mg/kg) was “Turbid” and the Solubility ([2]; vehicle HECT, dosage 30 mg/kg) was “Moderate”. The Supernatant ([2]; vehicle HECT, dosage 30 mg/kg) was “Turbid”.

In the case of `CC(C)NC(=NC(=O)OC(C)(C)C)N=C1NC(=O)C(=O)N1c1ccc(Cl)c(Cl)c1` [Compound 4c, N-[1-(3,4-dichlorophenyl)-4,5-dioxo-imidazolidin-2-ylidene]-N′-isopropyl-N″-(tert-butoxycarbonyl)guanidine], the “Minimum Protective Dose Against P. yoelii” value (Plasmodium yoelii (17×)) is reported as 1.25 mg/kg.

In the case of `CC(C)NC(=NC(=O)OCc1ccccc1)N=C1NC(=O)C(=O)N1c1ccc(Cl)c(Cl)c1` [Compound 4d, N-[1-(3,4-dichlorophenyl)-4,5-dioxo-imidazolidin-2-ylidene]-N′-isopropyl-N″-(benzyloxycarbonyl)guanidine], the melting point is reported as 211 °C and the “Minimum Protective Dose Against P. yoelii” value (Plasmodium yoelii (17×)) is reported as 10 mg/kg.

For `CCCCCCOC(=O)N=C(N=C1NC(=O)C(=O)N1c1ccc(Cl)c(Cl)c1)NC(C)C` [Compound 4e, N-[1-(3,4-dichlorophenyl)-4,5-dioxo-imidazolidin-2-ylidene]-N′-isopropyl-N″-(1-hexyloxycarbonyl)guanidine], the “Minimum Protective Dose Against P. yoelii” value (Plasmodium yoelii (17×)) was 5 mg/kg.

With `N=C(N=C1NC(=O)C(=O)N1c1ccc(Cl)c(Cl)c1)Nc1ccc(Cl)c(Cl)c1` [Compound 19, N-(3,4-dichlorophenyl)-N′-[1-(3,4-dichlorophenyl)-4,5-dioxo-imidazolidin-2-ylidene]-guanidine] the melting point was 220 °C.

In the case of `C[C@H]1[C@@H](O)O[C@@H]2O[C@@]3(C)CC[C@H]4[C@H](C)CC[C@@H]1[C@@]24OO3` [Dihyroartemisinin, reference compound], the “Minimum Protective Dose Against P. yoelii” value (Plasmodium yoelii (17×)) is reported as 160 mg/kg.

For `COc1cc(NC(C)CCCN)c2ncccc2c1` (centres unmarked) [Primaquine, reference compound], the “Minimum Protective Dose Against P. yoelii” value (Plasmodium yoelii (17×)) was 40 mg/kg.

In the case of `COc1cc(C)c2c(Oc3cccc(C(F)(F)F)c3)c(OC)cc(NC(C)CCCN)c2n1` (centres unmarked) [Tafenoguine, reference compound], the “Minimum Protective Dose Against P. yoelii” value (Plasmodium yoelii (17×)) is reported as 2.5 mg/kg.

For “N-(3,4-dichloro-phenyl)-N′-(5-methyl-2-oxo-1,3-dioxol-4-yl)methyl-N″-(1-isopropyl-4,5-dioxo-imidazolidin-2-ylidene)guanidine [Compound 3f]”, the “Minimum Protective Dose Against P. yoelii” value (Plasmodium yoelii (17×)) was >40 mg/kg.

In the case of “N-(3,4-dichlorophenyl)-N′-(benzyloxycarbonyl)-N″-(1-isopropyl-4,5-dioxo-imidazolidin-2-ylidene)-guanidine [Compound 3d]”, the “Minimum Protective Dose Against P. yoelii” value (Plasmodium yoelii (17×)) is reported as >160 mg/kg.
